Assay results from paper PMC7328663, “Agonist-specific desensitization of PGE2-stimulated cAMP signaling due to upregulated phosphodiesterase expression in human lung fibroblasts” (Naunyn-Schmiedeberg's archives of pharmacology, 2019).
pEC50: −log10 of the molar value. Where “and” joins values, the source holds several entries; their conditions need not be identical. Equal entries are not always repeated.

Columns and labels:
HFL-1 cells [1] = assay: cADDis assay for cAMP (fluorescent biosensor) in HFL-1 fibroblasts; assay type: cell-based, human; details: for leftward shift of PGE2 concentration-response curve (reversal of desensitization) by PDE inhibitor: 10 μM inhibitor, 10 min, Fig. 7a–c; for desensitization of PGE2 cAMP responses by pretreatment: 24 h pretreatment with 100 nM isoproterenol or 1 μM forskolin, Fig. 2a, Fig. 3; for desensitization of β-AR (isoproterenol) cAMP responses by pretreatment: 24 h pretreatment with 100 nM PGE2 or 100 nM isoproterenol, Fig. 1d; for pEC50: Homo sapiens, HFL1; for rightward shift of PGE2 responses induced by pretreatment: 24 h pretreatment with 100 nM of the agonist vs vehicle, Fig. 5b, n = 4; for PGE2 maximal response: normalized to 1 μM forskolin plus 200 μM IBMX, Fig. 4 experiments
Experimental: HFL-1 fibroblasts (ATCC, Manassas, VA, USA) were grown in Ham’s F12K medium (Thermo Fisher Scientific, Waltham, MA, USA) with 10% fetal bovine serum (Atlanta Biologicals, Flowery Branch, GA, USA) and 1% antibiotic-antimycotic solution. Cells with a passage number of 13 to 25 were used and were grown to 70–90% confluency for all studies. Cells were grown in an incubator at 37 °C and 5% CO2 levels. Medium was aspirated and cells were washed once with PBS. After aspiration of PBS, 5 mL of 0.25% trypsin-EDTA (Thermo Fisher Scientific, Waltham, MA, USA) was added for 5 min to induce cell detachment. Media was added to the flask and gently mixed to suspend detached cells, transferred to tubes, centrifuged at 500g for 5 min, then washed to remove trypsin. The cell pellet was resuspended in growth medium, and approximately 9000 sells were plated per well on 96-well plates. Cells were pretreated with PGE2, other drugs, or vehicle prior to experiments by adding 10× concentration of drug to growth media. Medium was aspirated after 24 h, and each well was washed once with warm Dulbecco’s phosphate-buffered saline before performing cADDis assay for cAMP.
The cADDis assay was purchased from Montana Molecular (Bozeman, MT, USA). HFL-1 cells were incubated with a recombinant mammalianized baculovirus (BacMam) engineered to express a genetically modified protein that is a fusion of EPAC, a cAMP effector, with the green fluorescent protein (GFP). This protein serves as a convenient and quantitative cAMP sensor. In its unbound form, the protein fluoresces, but its fluorescence is quenched upon binding of cAMP. When seeding the cells in a 96-well plate, the following components were added: […] of cells plus media, 40 μL BacMam solution, and 2 μL of trichostatin A (an inhibitor of histone deacetylase) (Sigma®, St. Louis, MO, USA). In the 96-well plate format, approximately 8900 cells were seeded per well and 2.95 × 10^8 viral particles per well were added. Trichostatin A stock concentration was 100 μM, giving a final concentration of 1 μM in the final volume of 200 μL per well. Transduced HFL-1 cells were incubated for 24 h at 37 °C and 5% CO2 levels. After incubation, medium was aspirated and replaced with 180 μL per well of 1× Dulbecco’s phosphate-buffered saline without calcium and magnesium (Thermo Fisher Scientific, Waltham, MA, USA). The 96-well plate was then covered with aluminum foil and incubated at 37 °C for 30 min. The plate was placed in a SpectraMax M5 plate reader (Molecular Devices, San Jose, CA, USA), and fluorescence was read from the bottom of the plate with an excitation wavelength of 494 nm and an emission wavelength of 522 nm for 5 min. Once variability of fluorescence was ≤ 5% in all wells, different concentrations ofPGE2 or other agents were added with a multi-pipette and the changes in fluorescence were measured every 30 s for 30 min.
Data from kinetic studies of fluorescence were normalized to the original level of fluorescence (ΔF/F0) and then fit to a single-site decay model using GraphPad Prism 7.0 (GraphPad Software Inc., San Diego, CA, USA). The plateau of each decay curve was then used as the maximal response to that given concentration of drug (Emax), and concentration-response curves were generated using nonlinear regression analysis (log [agonist] vs. response, variable slope, four parameters) using GraphPad Prism 7.0. Concentration-response curves in multiple conditions were compared using two-way analysis of variance (2-way ANOVA) with Tukey’s multiple comparison test, and significance (p value) is reported for the effect of different conditions. Statistical comparison tests (t tests, 1-way and 2-way ANOVA) were performed using GraphPad Prism.

PDE3B = assay: qRT-PCR of PDE3B mRNA after 24 h pretreatment; assay type: cell-based, human; details: 24 h pretreatment: 1 μM forskolin, 100 nM isoproterenol or 100 nM PGE2; Fig. 6a
Experimental: (§1) After 48-h incubation with the lentivirus, medium was aspirated, cells were washed once in 1× PBS, and buffer RLT was added to disrupt cell membranes. Cells were collected and RNA was isolated using RNeasy columns with a QIAcube robot (Qiagen). RNA was quantified using the NanoDrop 2000/2000c (Thermo Fisher). Reverse transcription was performed on 400 ng of RNA samples. All steps followed the SuperScript® III First-Strand Synthesis System for RT-PCR protocol (Thermo Fisher). The steps included a denaturation step at 65 °C for 5 min in the RNA/primer mixture, containing 50 ng/μL of random hexamers. Complementary DNA (cDNA) synthesis mixture was added to the RNA/primer mixture and incubated for 10 min at 25 °C, followed by 50 min at 50 °C. The reaction was terminated at 85 °C for 5 min, then chilled on ice. Finally, 1 μL of RNase H was added to each tube followed by incubation for 20 min at 37 °C. cDNA samples were either used immediately for quantitative reverse transcription polymerase chain reaction (qRT-PCR) experiments or stored at − 20 °C.
(§2) TaqMan® Gene Expression Assays (Thermo Fisher) were used for qRT-PCR reactions. The ratio of components for each reaction was as follows: 1 μL 20× TaqMan® Gene Expression Assay, 10 μL 2× TaqMan® Gene Expression Mater Mix, 4 μL cDNA (1 ng to 100 ng), and 5 μL of RNase-free water. The thermal cycler settings were as follows: step 1, 50 °C for 2 min; step 2, 95 °C for 10 min; step 3, 95 °C for 15 s; and step 4, 60 °C for 1 min. Steps 3 and 4 were repeated for a total of 40 cycles. The housekeeping genes GAPDH, β-actin, and CDKN1A were used to normalize for differences in RNA samples. PCR data were analyzed using the 2^[−ΔΔCt] method, where Ct is the cycle threshold.

PDE3A = assay: qRT-PCR of PDE3A mRNA after 24 h pretreatment; assay type: cell-based, human; details: 24 h pretreatment: 1 μM forskolin, 100 nM isoproterenol or 100 nM PGE2; Fig. 6a
Experimental: as §1, §2

PDE4D = assay: qRT-PCR of PDE4D mRNA after 24 h pretreatment; assay type: cell-based, human; details: 24 h pretreatment: 1 μM forskolin, 100 nM isoproterenol or 100 nM PGE2; Fig. 6a
Experimental: as §1, §2

PDE = PDE activity assays in HFL-1 cell lysates ([3H]cAMP hydrolysis); assay type: biochemical, human; details: for bulk PDE activity vs vehicle: cells treated 24 h with 30 μM forskolin, 100 nM PGE2 or 1 μM isoproterenol, Fig. 6c; for PDE activity in lysates in presence of inhibitor: roflumilast 1 μM or IBMX 1 mM in the assay, vehicle-, PGE2- and isoproterenol-pretreated cells, Fig. 6d
PDE4B = assay: qRT-PCR of PDE4B mRNA after 24 h pretreatment; assay type: cell-based, human; details: 24 h pretreatment: 1 μM forskolin, 100 nM isoproterenol or 100 nM PGE2; Fig. 6a
Experimental: as §1, §2

HFL-1 cells [2] = assay: Assay of basal cAMP (EIA of TCA extracts); assay type: cell-based, human; details: cells pretreated with 100 nM PGE2 for 24 h; not significant vs vehicle (p = 0.815)
Experimental: HFL-1 cells were washed three times with serum- and NaHCO3-free DMEM supplemented with 20 mM HEPES, pH 7.4 (DMEH), then incubated for 30 min at 37 °C. Medium was aspirated, and 250 μL of trichloroacetic acid (TCA, 7.5% w/v) was added to each well. cAMP content in TCA extracts was determined by EIA (Cayman Chemical) following the manufacturer’s instructions. The amount of cAMP was normalized to the amount of protein per sample as determined using a dye-binding protein assay (Bio-Rad).

EP2R = assay: qRT-PCR of EP2R mRNA after 24 h pretreatment; assay type: cell-based, human; details: 24-h pretreatment with 100 nM PGE2; Fig. 6a
Experimental: TaqMan® Gene Expression Assays (Thermo Fisher) were used for qRT-PCR reactions. […] PCR data were analyzed using the 2^[−ΔΔCt] method, where Ct is the cycle threshold.

[3] = cells pretreated with 100 nM PGE2 for 24 h
[4] = acute cAMP increase, no pretreatment, Fig. 5a

COc1ccc(C2CNC(=O)C2)cc1OC1CCCC1 (stereo not drawn) [rolipram]
leftward shift of PGE2 concentration-response curve (reversal of desensitization) by PDE inhibitor (HFL-1 cells [1]; [3]): 2.8 fold | effect on isoproterenol cAMP responses (HFL-1 cells [1]; 10 μM rolipram, cells pretreated with 100 nM PGE2 for 24 h, Fig. 7d): had no effect

C=C[C@@]1(C)CC(=O)[C@]2(O)[C@@]3(C)[C@@H](O)CCC(C)(C)[C@@H]3[C@H](O)[C@H](OC(C)=O)[C@@]2(C)O1 [forskolin]
desensitization of PGE2 cAMP responses by pretreatment (HFL-1 cells [1]): did not cause desensitization of PGE2 responses | PDE3B mRNA expression (PDE3B): Significant upregulation | PDE3A mRNA expression, fold change over vehicle (PDE3A): no effect | PDE4D mRNA expression, fold change over vehicle (PDE4D): 7.9 fold | bulk PDE activity vs vehicle (PDE): significantly increased PDE activity | PDE4B mRNA expression, fold change over vehicle (PDE4B): 3.9 fold

O=C(Nc1c(Cl)cncc1Cl)c1ccc(OC(F)F)c(OCC2CC2)c1 [roflumilast]
PDE activity in lysates in presence of inhibitor (PDE): significantly reduced PDE activity

O=C1CCc2cc(OCCCCc3nnnn3C3CCCCC3)ccc2N1 [cilostazol]
leftward shift of PGE2 concentration-response curve (reversal of desensitization) by PDE inhibitor (HFL-1 cells [1]; [3]): had no effect

CC(C)NCC(O)c1ccc(O)c(O)c1 (stereo not drawn) [isoproterenol]
desensitization of β-AR (isoproterenol) cAMP responses by pretreatment (HFL-1 cells [1]; Fig. 2b): induces desensitization of β-AR responses | desensitization of PGE2 cAMP responses by pretreatment (HFL-1 cells [1]): does not decrease responses to PGE2 | pEC50 (HFL-1 cells [1]; acute isoproterenol cAMP response, 24 h pretreatment with 100 nM isoproterenol, Fig. 2b): 8.65 | PDE3B mRNA expression (PDE3B): Significant upregulation | PDE3A mRNA expression, fold change over vehicle (PDE3A): no effect | PDE4D mRNA expression, fold change over vehicle (PDE4D): 5.0 fold | bulk PDE activity vs vehicle (PDE): does not | PDE4B mRNA expression, fold change over vehicle (PDE4B): 1.3 fold

CC(C)Cn1c(=O)n(C)c(=O)c2[nH]cnc21 [IBMX, 3-isobutyl-1-methylxanthine]
leftward shift of PGE2 concentration-response curve (reversal of desensitization) by PDE inhibitor (HFL-1 cells [1]; [3]): small leftward shift that was not statistically significant | PDE activity in lysates in presence of inhibitor (PDE): significantly reduced PDE activity

CCCCC[C@H](O)/C=C/[C@H]1[C@H](O)CC(=O)[C@@H]1C/C=C\CCCC(=O)O [PGE2, prostaglandin E2]
desensitization of β-AR (isoproterenol) cAMP responses by pretreatment (HFL-1 cells [1]; Fig. 2b): does not cause desensitization | rightward shift of PGE2 responses induced by pretreatment (HFL-1 cells [1]): 8.0 ± 2.2 fold | pEC50 (HFL-1 cells [1]; acute PGE2 cAMP response, 24 h vehicle pretreatment, Table 1/Fig. 1c, mean ± SEM n = 3–10): 7.40 | pEC50 (HFL-1 cells [1]; [4]): 8.48 | PGE2 maximal response (HFL-1 cells [1]; PGE2-pretreated cells (100 nM, 24 h)): 0.60 ± 0.09 | Emax (HFL-1 cells [1]; PGE2 response after 24 h pretreatment with 1, 10 or 100 nM PGE2 vs vehicle): None of the pretreatment conditions produced a significant reduction | PGE2 maximal response (HFL-1 cells [1]; vehicle-pretreated cells): 1.06 ± 0.10 | basal cAMP level (HFL-1 cells [2]): 57.9 ± 13.8 fmol/mg protein | PDE3B mRNA expression (PDE3B): Significant upregulation | PDE3A mRNA expression, fold change over vehicle (PDE3A): 7.3 fold | PDE4D mRNA expression, fold change over vehicle (PDE4D): 22.3 fold | EP2R mRNA levels (EP2R): did not observe any change | bulk PDE activity vs vehicle (PDE): significantly increased PDE activity | bulk PDE activity vs vehicle, time course (PDE; cells treated with 100 nM PGE2 from 5 min to 24 h, after 6 h or more): significant increases | PDE4B mRNA expression, fold change over vehicle (PDE4B): 2.6 fold

C=CCC1([C@@H](O)C/C=C/[C@@H]2[C@@H](C/C=C\CCCC(=O)O)[C@H](Cl)C[C@H]2O)CCC1 [ONO-AE1–259]
rightward shift of PGE2 responses induced by pretreatment (HFL-1 cells [1]): 4.0 ± 1.2 fold and 4 fold | log EC50 (HFL-1 cells [1]; [4]): −8.29

CCOc1c2c(c(OCC)c3ccccc13)C(=O)N(c1ccc(CC(=O)NS(=O)(=O)c3ccccc3)cc1)C2 [GW-627368X]
shift of PGE2 concentration-response curve by antagonist (HFL-1 cells [1]; antagonist 100 nM, cells pretreated with 100 nM PGE2 for 24 h, Fig. 4): did not | rightward shift of PGE2 concentration-response curve by antagonist (HFL-1 cells [1]; antagonist 100 nM, vehicle-pretreated cells): did not cause a rightward shift
